Measured values taken from ChEMBL document CHEMBL1158741, “Majusculoic acid, a brominated cyclopropyl fatty acid from a marine cyanobacterial mat assemblage” (2005).
In brackets after ≈: the same amount, converted by molar mass. Activity calls are given as the source filed them. The rule behind the calls is not given here.

Legend:
Candida albicans [1] = assay: Antifungal activity against Candida albicans ATCC 14503; assay type: functional
Candida albicans [2] = assay: Antifungal activity against fluconazole-resistant Candida albicans UCD FR1; assay type: functional, organism-based
Nakaseomyces glabratus = assay: Antifungal activity against Candida glabrata; assay type: functional

Compound	MIC (Candida albicans [1]) [µM]	Activity (Candida albicans [2])	MIC (Nakaseomyces glabratus) [µM]
OC(Cn1cncn1)(Cn1cncn1)c1ccc(F)cc1F [FLUCONAZOLE]	1 (≈ 0.306 µg/mL)	–	–
CCC/C(Br)=C/C=C/CC[C@H]1C[C@@H]1CCC(=O)O [MAJUSCULOIC ACID]	8 (≈ 2.52 µg/mL)	inactive	19.3 (≈ 6.08 µg/mL)
